Four compounds from patent US8148355B2, “Phophylactic and therapeutic use of hydroxysteroids” (Hunter-Fleming Limited, priority 2001, dated 2012) can be followed below.

“And” between values parts separate entries of the source, which are not always exact repeats. Equal entries are not always repeated.

Data set [1] relates to hippocampal CA1 pyramidal cells. In words: Global cerebral ischaemia in rats, 4 vessel occlusion (intact CA1 neurons, Nissl staining). Type of data set: in vivo, male Wistar rats. How it is done: Cerebral ischaemia was induced by four-vessel-occlusion (4VO) in male Wistar rats (250-280 g). Both vertebral arteries were occluded by electrocauterization in pentobarbital anaesthesia (60 mg/kg i.p.). The animals were allowed to recover for 24 hours with free access to water but not food. The next day the carotid arteries were exposed under 2% halothane in 30% oxygen/70% nitrous oxide anaesthesia and were occluded for 10 minutes using microvascular clamps. Subsequently, both clamps were removed and both arteries were inspected for immediate reperfusion. During the operation and the following 3 hours normothermia of the animals (37.5±0.5° C.) was maintained by using a thermostatically controlled heating blanket connected to a rectal thermometer. For control, in sham-operated animals both vertebral arteries were cauterised in pentobarbital anaesthesia and both common carotid arteries were exposed but not clamped under 2% halothane in 30% oxygen/70% nitrous oxide anaesthesia the following day. The wound was treated with lidocaine gel and then sutured. The animals were kept under a heating lamp at 30° C. environmental temperature until they regained consciousness.
Seven groups of animals were investigated: • 1. (n=8) steroid compound, 7β-OH EPIA (0.1 mg/kg, i.v. via tail vein, three injections: 15 minutes prior to the induction of ischaemia, during ischaemia and 5 minutes after reperfusion); • 2. (n=8) steroid compound, 7β-OH EPIA (0.3 mg/kg, i.v. three injections as described in 1.); • 3. (n=8) steroid compound, 7β-OH EPIA (1 mg/kg, i.v., three injections as described in 1.); • 4. (n=8) NBQX (disodium salt, because more water soluble) as reference substance and positive control (TOCRIS, Germany, 30 mg/kg, i.p., three injections as described in 1.); • 5. (n=8) received vehicle (0.9% NaCl, containing 100 μl Ethanol) three injections as described in 1.); • 6. (n=8) ischaemia alone; • 7. (n=8) sham operated controls.
The substances were dissolved in 100 μl ethanol and finally diluted with 0.9% NaCl.
After a survival time of 7 days after ischaemia, all animals were perfusion fixed tanscardially with 4% paraformaldehyde. The brains were then removed carefully and postfixed in the same fixative for 2 hours. After cryoprotection in 30% sucrose, the brains were rapidly frozen in isopentane and stored at −80° C. Twenty-micrometer cryostat sections comprising the hippocampal formation were Nissl stained with toluidine blue or NeuroTrace fluorescence.
The severity of neuronal damage in the hippocampal CA1 region after ischaemia was evaluated by the number of surviving neurons using Nissl staining. The mean number of morphologically intact neurons per 400 μm length was calculated in CA1 region for each group. Cell counting was performed in 3-5 serial sections per animal and 6 times 400 μm CA1 area per section using a light microscope equipped with a 20× objective. The data were statistically analysed by paired Student's t-test. Data were presented as mean±SEM.
Morphological intact hippocampal CA1 neurons were characterised by Nissl staining (toluidine blue and NeuroTrace) with the following criteria: clear shape of a neuronal perikarya, large nucleus with a positive labelled nucleolus, a small cytoplasm zone around the nucleus with positive Nissl staining, indicating the intact rough endoplasmic reticulum with ribosomes and therefore the intact protein synthesis machinery.

In data set [2] the test system is Organotypic hippocampal slice cultures (CA1 cell layer). In words: Hypoxic neuronal damage in organotypic hippocampal slice cultures (PI fluorescence in CA1). The class given is cell-based, Wistar rat. The note with it: for effect on hypoxic damage in CA1 (in words): pre-. The protocol:
Protocol For Studying Hypoxic Neuronal Damage
Organotypic hippocampal slice cultures were prepared using the basic method of Pringle et al (1996, 1997) modified as follows:
Wistar rat pups (8-11 days old) were decapitated and the hippocampus rapidly dissected into ice-cold Gey's balanced salt solution supplemented with 4.5 mg/ml glucose. Slices were separated and plated onto Millicell CM culture inserts (4 per well) and maintained at 37° C./5% CO2 for 14 days. Maintenance medium consisted of 25% heat-inactivated horse serum, 25% Hank's balanced salt solution (HBSS) and 50% minimum essential medium with added Earle's salts (MEM) supplemented with 1 mM glutamine and 4.5 mg/ml glucose. Medium was changed every 3-4 days.
Experimental hypoxia was performed as described previously (Pringle et al., 1996; 1997). Briefly, cultures were transferred to serum free medium (SFM-75% MEM, 25% HBSS supplemented with 1 mM glutamine and 4.5 mg/ml glucose) containing 5 μg/ml of the fluorescent exclusion dye propidium iodide (PI). Cultures were allowed to equilibrate in SFM for 60 minutes prior to imaging. PI fluorescence was detected using a Leica inverted microscope fitted with a rhodamine filter set. Any cultures in which PI fluorescence was detected at this stage were excluded from further study. Hypoxia was induced by transferring cultures to SFM (+PI) which had been saturated with 95% N2/5% CO2. Culture plates (without lids) were then sealed into an airtight chamber in which the atmosphere was saturated with 95% N2/5% CO2 by continuously blowing through gas at 10 liters/minute for ten minutes before being sealed and placed in the incubator for 170 minutes (total time of hypoxia was therefore 180 minutes). At the end of the hypoxic period cultures were returned to normoxic SFM containing PI and placed back in the incubator for 24 hours.
Neuronal damage was assessed as described previously (Pringle et al., 1996; 1997) using either NIH Image 1.60 running on an Apple IIsi computer or OpenLab 2.1 (Improvision) running on a Macintosh G4/400. Images were captured using a monochrome camera and saved onto optical disk for offline analysis. Light transmission images were captured prior to the addition of drugs, and PI fluorescence images recorded at the end of the 24-hour post-hypoxia recovery period. The area of the CA1 cell layer was determined from the transmission image. The area of PI fluorescence in CA1 was measured using the density slice function within NIH Image or OpenLab, and neuronal damage expressed as the percentage of the CA1 in which PI fluorescence was detected above background.
Steroid compounds were prepared by making an initial 1 mg/ml solution in ethanol and further diluting down in SFM. Compounds were added to the cultures for 45 minutes prior to hypoxia, during the hypoxic episode and during the post-hypoxic recovery period. Control experiments consisted of cultures treated with vehicle alone.

Data set [3] has as its system Langendorf perfused male rat hearts. In words: Cardioprotective effect in Langendorf perfused rat hearts (regional ischaemia/reperfusion, infarct size). Set-up: species or system Wistar rats. The note with it: 100 nM in perfusate, 30 min regional ischaemia, 120 min reperfusion. How it is done: The study was designed to test the potential anti-ischaemic and cardioprotective effect of 7β-OH EPIA in Langendorf perfused male rat hearts. The end point for evaluation of protection in this model is infarct size (protection against lethal injury, cell death). The infarct size model used is based on a standardised ischaemic insult followed by reperfusion. In the current study, treatment was added ex vivo (to the perfusion solution of the isolated heart) for 30 minutes prior to infarction and continued through 30 minutes regional ischaemia (infarction) and 120 minutes of reperfusion. Based on results from pilot studies, a concentration of 100 nM was used and compared to vehicle treated hearts. The drug was dissolved in DMSO (vehicle) and the final concentration of DMSO in the perfusion solution was 1:10^−6.
Animals were housed in the animal department of the University of Tromsø and treated according to the guidelines formulated by the European Convention for the protection of vertebrate animals used for experimental or other purposes. Supply of Wistar rats were from Harland (The Netherlands), and the rats stayed in the animal department for one week before experiments were started. Animal weight was restricted to 240-380 g, and only male hearts were used. This corresponds to age 60-120 days. […]
The perfusion pressure was 100 mm H2O. […] Heart rate was calculated from pressure recordings. […]

The mark [4] stands for this setting: 30 mg/kg, three injections, 10 min global ischaemia, 7 days survival.
Setting [5] is: Experiment 1, 100 nM, during and post-hypoxia.
Where [6] appears, read: Experiment 1, 100 nM, present pre-, during and post-hypoxia, control hypoxia 25.5 ± 6.4.

Turning to `NS(=O)(=O)c1cccc2c1c([N+](=O)[O-])cc1nc(O)c(O)nc12` [NBQX, 2,3-dihydroxy-6-nitro-7-sulfamoyl-benzo(F)quinoxaline, reference compound], the “neuroprotection in CA1 pyramidal cells compared to the ischaemia group (in words)” value in data set [1] (30 mg/kg, three injections) was “significant (p=0.03) neuroprotection”. Further, in data set [1] (setting [4]), the “neuroprotection compared to the ischaemia alone” value came to 47.5% and the “protective effect compared to the sham operated animals” value is given as 68.5%.

Regarding `C[C@]12CC[C@H](O)CC1=C[C@H](O)[C@@H]1[C@@H]2CC[C@]2(C)C(=O)CC[C@@H]12` [7βOH-DHEA, 7β-hydroxy-DHEA], the “effect on neuronal damage (in words)” value in data set [2] (Experiment 3, 100 nM pre-, during and post-hypoxia) is “a large, highly significant, reduction in neuronal damage”. In addition, the “% Damage in CA1” value in data set [2] (Experiment 3, 100 nM pre-, during and post-hypoxia, control hypoxia 29.0 ± 6.2) worked out at 4.1 ± 1.9 %.

For `C[C@]12CC[C@H](O)C[C@@H]1C[C@@H](O)[C@@H]1[C@@H]2CC[C@]2(C)C(=O)CC[C@@H]12` [7αOH-EPIA, 7α-Hydroxy-EPIA], the “effect on hypoxic damage in CA1 (in words)” value in data set [2] (setting [5]) was “significantly reduced”. Also, the “% Damage in CA1” value in data set [2] (setting [6]) stood at 4.0 ± 2.9 %.

The compound `C[C@]12CC[C@H](O)C[C@@H]1C[C@H](O)[C@@H]1[C@@H]2CC[C@]2(C)C(=O)CC[C@@H]12` [7βOH-EPIA, 7β-hydroxyepiandrosterone] yielded an Infarct volume in data set [3] (control 38.9) of 14.1. Moreover, the “Infarct/risk zone (%)” value in data set [3] (control 46.3) was 14.4+/−1.22% and 14.4%. In addition, the “neuroprotective effect, t-test analysis (in words)” value in data set [1] (0.1 mg/kg (p=0.01) and 0.3 mg/kg (p=0.0008)) is reported as “highly significant neuroprotective effect”. Besides, the “neuroprotective effect on CA1 pyramidal cells compared to the sham operated group” value in data set [1] (0.1 mg/kg i.v., three injections, 10 min global ischaemia, 7 days survival) stood at 74.8%; in data set [1] (0.3 mg/kg i.v., three injections, 10 min global ischaemia, 7 days survival), 83.9%. The “neuroprotection of CA1 pyramidal cells (in words)” value in data set [1] (1.0 mg/kg i.v., three injections) is “only a tendency to neuroprotection, but the effect was not significant”. In data set [1] (injected i.v. prior, during and after ischaemia), the “behavioural abnormalities of the animals” value is on record as “never observed any behavioural abnormalities”. Moreover, the “effect on hypoxic damage in CA1 (in words)” value in data set [2] (setting [5]) is “significantly reduced”. Besides, the “% Damage in CA1” value in data set [2] (setting [6]) is 9.0 ± 4.7 %; in data set [2] (Experiment 2, 1 nM, control hypoxia 31.9 ± 4.7), 20.6 ± 7.2%; in data set [2] (Experiment 2, 10 nM, control hypoxia 31.9 ± 4.7), 11.9 ± 4.7 %; in data set [2] (Experiment 2, 100 nM, control hypoxia 31.9 ± 4.7), 14.3 ± 5.0 %. Besides, the “neuroprotection against hypoxia (in words)” value is given as “activity was lost” in data set [2] (Experiment 2, 1 nM); “significantly neuroprotective” in data set [2] (Experiment 2, 10 nM and 100 nM).
